Test results as given in article PMC3486515 (Investigational new drugs, 2010).
Values joined by “and” are separate entries in the source; they are usually repeats but may differ in a detail not shown here. Equal entries are not always repeated. “Also recorded” adds a separate entry of the source.

How the values were obtained:
[1] = test system: patients with advanced solid tumors
[2] = test system: patients with advanced solid tumors; conditions: human, in vivo
[3] = Flavopiridol protein binding in patient PK samples by micro-equilibrium dialysis; conditions: for concentration at 4 h: human, plasma, intravenous, Mean free flavopiridol plasma concentration at the end of the 4-hour infusion
[4] = Plasma pharmacokinetics, LC/MS/MS, non-compartmental analysis
[5] = test system: IL-6; assay: Serum cytokine levels by cytokine bead array and ELISA; conditions: prior to and after flavopiridol infusion
[6] = test system: advanced solid tumors; assay: Objective response by RECIST; assay type: in vivo, human
[7] = test system: refractory solid tumors; conditions: 72-hr infusion schedule; cited from earlier work
[8] = test system: refractory chronic lymphocytic leukemia (CLL); conditions: cited from earlier work
[9] = All dose levels, 34 pts, first dose, mean ± SD
[10] = dose level 1, 1B (30+30 mg/m^2 bolus+infusion), 6 pts, first dose, mean ± SD
[11] = dose level 2, 2B (30+45 mg/m^2 bolus+infusion), 9 pts, first dose, mean ± SD
[12] = dose level 3 (30+60 mg/m^2 bolus+infusion), 9 pts, first dose, mean ± SD
[13] = dose level 4 (30+75 mg/m^2 bolus+infusion), 2 pts, first dose, mean ± SD
[14] = dose level −1, −1B (20+20 mg/m^2 bolus+infusion), 8 pts, first dose, mean ± SD

## C[C@@H]1C[C@H]2[C@@H]3CCC4=CC(=O)C=C[C@]4(C)[C@@]3(F)[C@@H](O)C[C@]2(C)[C@@]1(O)C(=O)CO [dexamethasone]
[1]; prophylactic dexamethasone 20 mg prior to bolus dose of flavopiridol
  Effect on frequency/incidence of CKRS: did not impact the frequency of CKRS; also recorded: did not impact the incidence of CKRS; also recorded: not associated with decreased occurrence of CKRS

## CN1CC[C@H](c2c(O)cc(O)c3c(=O)cc(-c4ccccc4Cl)oc23)[C@H](O)C1 [flavopiridol]
[2]
  Adverse event: Deep venous Thrombosis: 1
  Adverse event: Diaphories: 8 (24) N (%)
  Adverse event: Dizziness: 6 (35) N (%)
  Adverse event: Dysphagia: 1
  Adverse event: Dyspnea: 5
  Adverse event: Elevated Alk Phos: 2
  Adverse event: Febrile neutropenia: 1
  Adverse event: Fever: 4 (12) N (%)
  Adverse event: Hyperbilrubinemia: 4 (12) N (%)
  Adverse event: Hypercalcemia: 1
  Adverse event: Hypoxemia: 2
  Adverse event: Nausea and/or vomiting: 20 (59) N (%)
  Adverse event: Somonolence: 4 (12) N (%)
  Adverse event: Tumor lysis syndrome: 1
  Patients off study for grade 3 AEs: 6 patients
  Patients off study for grade 3 AST/ALT: 2 n
  Patients off study for grade 3 CKRS: 4 n
  Patients with CKRS: 41%
  Time to resolution of CKRS symptoms: ≤ 6 h
[3]; patients who did not experience CKRS (N=20), cycle 1
  concentration at 4 h: 0.02 ± 0.009 µM
[3]; patients with grade 1 or higher CKRS during cycle 1
  concentration at 4 h: 0.035 ± 0.026 µM
[3]; patients with CKRS during cycle 1
  Mean free flavopiridol AUC: 0.318 ± 0.22 µM·h
[3]; patients without observed CKRS during cycle 1
  Mean free flavopiridol AUC: 0.215 ± 0.103 µM·h
[4]; 20 mg/m^2 bolus dose
  Mean end-of-infusion concentration (C0.5): 910 ± 260 µM
[4]; 30 mg/m^2 bolus dose
  Mean end-of-infusion concentration (C0.5): 1420 ± 660 µM
[4]; 5 doses from 40 to 105 mg/m^2
  Dose proportionality of plasma concentrations (Cmax) and AUC: increased proportionally with dose; also recorded: proportional increases in Cmax and AUC
[4]; [9]
  AUCO-∞: 13.6 ± 7.0 hr x µM
  CL: 12.7 ± 6.3 L/hr/m^2
  V2 (volume of distribution): 241 ± 149 L/m^2
[4]; [10]
  AUCO-∞: 13.2 ± 3.4 hr x µM
  CL: 11.9 ± 3.0 L/hr/m^2
  V2 (volume of distribution): 198 ± 82 L/m^2
[4]; [11]
  AUCO-∞: 14.3 ± 6.8 hr x µM
  CL: 15.3 ± 5.8 L/hr/m^2
  Cmax: 1.79 ± 0.83 µM
  V2 (volume of distribution): 307 ± 155 L/m^2
[4]; [12]
  AUCO-∞: 16.6 ± 8.6 hr x µM
  CL: 16.5 ± 7.0 L/hr/m^2
  V2 (volume of distribution): 309 ± 168 L/m^2
[4]; [13]
  AUCO-∞: 20.8 hr x µM and 20.8 ± 5.6 hr x µM
  CL: 13.1 ± 3.6 L/hr/m^2
  Cmax: 2.71 ± 1.08 µM
  V2 (volume of distribution): 260 ± 28 L/m^2
[4]; [14]
  AUCO-∞: 7.9 hr x µM and 7.9 ± 4.2 hr x µM
  CL: 6.1 ± 2.5 L/hr/m^2
  V2 (volume of distribution): 117 ± 99 L/m^2
[4]; human, plasma, intravenous, AUC0–∞, overall mean, all doses (40–105 mg/m^2), 34 patients
  AUC(0-inf): 13.6 ± 7 µM·h
[4]; human, plasma, intravenous, T1/2, All dose levels, 34 pts, first dose, mean ± SD
  half-life: 14.2 ± 8.4 h
[4]; human, plasma, intravenous, Tmax, All dose levels, 34 pts, first dose, mean ± SD
  Tmax: 2.02 ± 1.87 h
[5]
  IL-6 serum levels: associated with flavopiridol infusion
  Other serum cytokines (IL-2, IL-4, IL-10, TNF-α, IFNγ): No other cytokines were associated with flavopiridol infusion
[1]; 30-min bolus, weekly for 4 weeks on a 6-week cycle, patients with advanced solid tumors, dose level −1B
  Maximum-tolerated dose, bolus: 20 mg/m^2
[1]; infusion over 4 hours after bolus, weekly for 4 weeks on a 6-week cycle, patients with advanced solid tumors, dose level −1B
  Maximum-tolerated dose, infusion: 20 mg/m^2
[1]; on study
  Deaths attributed to CKRS: One death on the study was attributed to CKRS
[1]; patients with advanced solid tumors
  MTD (bolus+infusion): 20+20 mg/m^2
[6]; 34 patients
  Patients off study for progressive disease (PD): 18 patients
[6]; 34 patients with advanced solid tumors, RECIST
  Antitumor (objective) responses: No antitumor responses were observed; also recorded: No objective responses were observed
[6]; after completing two cycles
  Patients with PD: seventeen
[7]
  Major dose-limiting toxicity (DLT): Secretory diarrhea
[8]; PK-directed schedule, single agent, CLL
  Partial response rate: 40%
[8]; phase II study, refractory CLL patients
  Response rate: approximately 50%
[8]; refractory CLL patients
  MTD (bolus+infusion): 30+50 mg/m^2
[8]; refractory CLL, 4-hr infusion
  Maximum-tolerated dose (MTD), infusion: 50 mg/m^2
[8]; refractory CLL, 30-minute loading dose
  Maximum-tolerated dose (MTD), bolus: 30 mg/m^2
